Reference: the supplement of paper PMC11424490

Key:
[1] = tested on: SW837; assay: combination cScore with sotorasib (Bliss gap around IC50) (%PoC); higher = stronger additive effect
Summary of the method: (§1)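 The score averages the gap between expected and measured viability under Bliss independence, taken over a field around the IC50 of each single agent or, where an IC50 was not reached, at the highest concentrations. Viability came from CellTiter-Glo luminescence, normalised to vehicle wells as percent of control and fitted with four-parameter curves. NCI-H2122, NCI-H358 and SW837 cells were dosed in concentration matrices 24 h after seeding and grown for 72 h, or 144 h for SW837.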

[2] = tested on: NCI-H2122; assay: as above
Summary of the method: as §1

Row | SMILES | combination cScore with sotorasib [1] | combination cScore with sotorasib [2]
1 | CCC1=C[C@@H]2CN(C1)Cc1c([nH]c3ccccc13)[C@@](C(=O)OC)(c1cc3c(cc1OC)N(C)[C@H]1[C@@](O)(C(=O)OC)[C@H](OC(C)=O)[C@]4(CC)C=CCN5CC[C@]31[C@@H]54)C2 [Vinorelbine] + C=CC(=O)N1CCN(c2nc(=O)n(-c3c(C)ccnc3C(C)C)c3nc(-c4c(O)cccc4F)c(F)cc23)[C@@H](C)C1 [sotorasib] | 4.13 | 1.79
2 | CC(C)C[C@@H](C(=O)N[C@H](C(=O)OC1CCCC1)c1ccccc1)[C@H](O)C(=O)NO [Tosedostat] + C=CC(=O)N1CCN(c2nc(=O)n(-c3c(C)ccnc3C(C)C)c3nc(-c4c(O)cccc4F)c(F)cc23)[C@@H](C)C1 [sotorasib] | 31.5 | 10.4
3 | O=C(CCCCCCC(=O)Nc1ccccc1)NO [Vorinostat] + C=CC(=O)N1CCN(c2nc(=O)n(-c3c(C)ccnc3C(C)C)c3nc(-c4c(O)cccc4F)c(F)cc23)[C@@H](C)C1 [sotorasib] | 14.9 | 8.52
4 | CC(=O)Nc1cccc(-n2c(=O)n(C3CC3)c(=O)c3c(Nc4ccc(I)cc4F)n(C)c(=O)c(C)c32)c1 [Trametinib] + C=CC(=O)N1CCN(c2nc(=O)n(-c3c(C)ccnc3C(C)C)c3nc(-c4c(O)cccc4F)c(F)cc23)[C@@H](C)C1 [sotorasib] | 14.5 | 14.2
5 | O=C(Cc1ccccc1)Nc1nnc(CCSCCc2nnc(NC(=O)Cc3ccccc3)s2)s1 [BPTES] + C=CC(=O)N1CCN(c2nc(=O)n(-c3c(C)ccnc3C(C)C)c3nc(-c4c(O)cccc4F)c(F)cc23)[C@@H](C)C1 [sotorasib] | -3.09 | 4.36
6 | C[C@@H](Oc1cc(-c2cnn(C3CCNCC3)c2)cnc1N)c1c(Cl)ccc(F)c1Cl + C=CC(=O)N1CCN(c2nc(=O)n(-c3c(C)ccnc3C(C)C)c3nc(-c4c(O)cccc4F)c(F)cc23)[C@@H](C)C1 [sotorasib] | 13.5 | 2.31
7 | C[C@H](CS)C(=O)N1CCC[C@H]1C(=O)O [Captopril] + C=CC(=O)N1CCN(c2nc(=O)n(-c3c(C)ccnc3C(C)C)c3nc(-c4c(O)cccc4F)c(F)cc23)[C@@H](C)C1 [sotorasib] | -0.1 | 1.43
8 | CO[C@H]1C[C@@H]2CC[C@@H](C)[C@@](O)(O2)C(=O)C(=O)N2CCCC[C@H]2C(=O)O[C@H]([C@H](C)C[C@@H]2CC[C@@H](OCCO)[C@H](OC)C2)CC(=O)[C@H](C)/C=C(\C)[C@@H](O)[C@@H](OC)C(=O)[C@H](C)C[C@H](C)/C=C/C=C/C=C/1C [Everolimus] + C=CC(=O)N1CCN(c2nc(=O)n(-c3c(C)ccnc3C(C)C)c3nc(-c4c(O)cccc4F)c(F)cc23)[C@@H](C)C1 [sotorasib] | -4.84 | 4.54
9 | Nc1nc(Cl)nc2c1ncn2[C@@H]1O[C@H](CO)[C@@H](O)[C@@H]1F [Clofarabine] + C=CC(=O)N1CCN(c2nc(=O)n(-c3c(C)ccnc3C(C)C)c3nc(-c4c(O)cccc4F)c(F)cc23)[C@@H](C)C1 [sotorasib] | 3.33 | 1
10 | Cc1ccc(NC(=O)c2ccc(CN3CCN(C)CC3)cc2)cc1Nc1nccc(-c2cccnc2)n1 [Imatinib] + C=CC(=O)N1CCN(c2nc(=O)n(-c3c(C)ccnc3C(C)C)c3nc(-c4c(O)cccc4F)c(F)cc23)[C@@H](C)C1 [sotorasib] | 2.47 | -1.79
11 | O=C(c1ccc(F)c(F)c1Nc1ccc(I)cc1F)N1CC(O)([C@@H]2CCCCN2)C1 [Cobimetinib] + C=CC(=O)N1CCN(c2nc(=O)n(-c3c(C)ccnc3C(C)C)c3nc(-c4c(O)cccc4F)c(F)cc23)[C@@H](C)C1 [sotorasib] | 11.3 | 5.25
